pIC50: −log10 of the molar value.
Columns and labels:
[1] = system: H3K18Ac in HB-CLS-2 cells; experiment: H3K18AC in-cell western (ICW) assay; type: cell-based; settings: H3K18Ac in-cell western; read-out: CREBBP ICW IC50
Method in brief: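 In-cell western: after methanol fixation, blocking, overnight 4° C anti-H3K18Ac staining, then 800CW secondary plus DRAQ5 for DNA content, integrated intensities were scanned at 800 and 700 nm. Before this, compound exposure lasted 2 hr at 37° C in HB-CLS-2 cells plated 16–24 hours earlier. Values expressed as IC50 (μM).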

[2] = system: 647V cells; experiment: High throughput proliferation (HTP) assay; type: cell-based; settings: Homo sapiens, 647-V, high throughput proliferation; read-out: CREBBP HTP IC50
Method in brief: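 Proliferation IC50 (micromolar) derived from a 7-day CellTiter-Glo viable-cell readout in 647V cells exposed, in triplicate, to rising compound concentrations; cells grown in DMEM plus 15% heat-inactivated FBS at 37° C under 5% CO2.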

[3] = molecular target: T1, CREBBP (1084-1701) (Homo sapiens, UniProt Q92793); experiment: Biochemical assay for CREBBP (1084-1701), SAMDI; settings: SAMDI, read-out: CREBBP Biochemistry IC50
T1 construct: measured in the following biochemical assay using CREBBP (1084-1701); purchased
T1 sequence (Q92793 1084-1701): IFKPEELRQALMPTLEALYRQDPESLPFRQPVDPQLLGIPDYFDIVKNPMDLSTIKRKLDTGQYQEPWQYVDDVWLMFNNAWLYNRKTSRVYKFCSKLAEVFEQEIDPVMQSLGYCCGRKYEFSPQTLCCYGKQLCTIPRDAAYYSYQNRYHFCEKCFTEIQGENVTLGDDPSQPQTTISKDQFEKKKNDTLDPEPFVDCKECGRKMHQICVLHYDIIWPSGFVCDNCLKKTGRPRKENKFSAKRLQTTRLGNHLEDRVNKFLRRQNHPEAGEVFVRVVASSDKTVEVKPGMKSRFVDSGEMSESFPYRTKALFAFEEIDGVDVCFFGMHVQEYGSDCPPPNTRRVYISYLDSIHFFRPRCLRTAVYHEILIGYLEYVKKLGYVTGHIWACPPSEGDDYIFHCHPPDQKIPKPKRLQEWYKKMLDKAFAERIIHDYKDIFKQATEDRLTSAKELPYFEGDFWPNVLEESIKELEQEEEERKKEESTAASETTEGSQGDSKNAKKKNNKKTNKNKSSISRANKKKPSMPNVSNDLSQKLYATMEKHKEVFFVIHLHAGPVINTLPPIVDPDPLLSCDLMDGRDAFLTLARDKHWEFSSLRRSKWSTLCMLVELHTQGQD
Method in brief: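 Acetyltransferase activity measured by SAMDI mass spectrometry after capture on biochip. Enzyme sat with compound 30 min at RT before acetyl-CoA and biotinylated H3 11-25 (K14R, K23R) peptide were added for 30 min at RT. Formic acid quench, bicarbonate neutralisation; IC50 values reported.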

[4] = molecular target: T2, EP300 (P300(1048-1664)) (Homo sapiens, UniProt Q09472); experiment: Biochemical assay for EP300, SAMDI; settings: EP300, SAMDI; read-out: EP300 Biochemistry IC50
T2 construct: P300(1048-1664)
T2 sequence (Q09472 1048-1664): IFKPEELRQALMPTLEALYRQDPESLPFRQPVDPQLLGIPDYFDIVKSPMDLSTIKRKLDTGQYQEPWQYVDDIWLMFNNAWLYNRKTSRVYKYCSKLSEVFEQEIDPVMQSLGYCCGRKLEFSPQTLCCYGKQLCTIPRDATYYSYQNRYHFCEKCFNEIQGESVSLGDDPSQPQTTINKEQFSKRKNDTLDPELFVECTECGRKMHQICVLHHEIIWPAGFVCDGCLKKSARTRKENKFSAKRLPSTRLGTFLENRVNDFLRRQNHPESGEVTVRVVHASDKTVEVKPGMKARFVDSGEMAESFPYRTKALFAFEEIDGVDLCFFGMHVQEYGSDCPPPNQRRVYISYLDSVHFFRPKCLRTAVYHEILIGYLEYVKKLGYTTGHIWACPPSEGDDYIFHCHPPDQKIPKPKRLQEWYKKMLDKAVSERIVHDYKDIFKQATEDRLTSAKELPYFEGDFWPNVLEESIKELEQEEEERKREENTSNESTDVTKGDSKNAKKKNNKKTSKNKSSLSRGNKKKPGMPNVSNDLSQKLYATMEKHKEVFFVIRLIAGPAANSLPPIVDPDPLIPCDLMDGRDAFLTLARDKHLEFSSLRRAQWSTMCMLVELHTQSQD
Excerpt: The following example describes materials and methods relating to a biochemical assay for EP300. IC50 values (micromolar (μM)) are summarized in Table 1, Table 2, and Table 3 under the column labeled: “EP300 Biochemistry IC50 (micromolar).”

**Q.** How did the pIC50 [1] turn out when `CCc1ncc(CN(C)C(=O)c2nc(-c3cc(C)nc(NCCNC)c3)nc3ccc(COC)cc23)n1C` [Compound 527] was run?
**A.** 6.10

**Q.** And the pIC50 [2]?
**A.** 6.53

**Q.** And the pIC50 [3]?
**A.** 7.17

**Q.** What about the pIC50 [4] of the same compound?
**A.** 7.67

**Q.** With `CCn1ncc(CN(C)C(=O)c2nc(-c3cc4[nH]ncc4nc3C)nc3ccc(Cl)cc23)c1C` [Compound 528] as the compound, how does the pIC50 [1] read?
**A.** 6.22

**Q.** And the pIC50 [2]?
**A.** 5.96

**Q.** And the pIC50 [3]?
**A.** 5.97

**Q.** And the pIC50 [4]?
**A.** 5.98

**Q.** How did the pIC50 [1] turn out when `CCn1ncc(CN(C)C(=O)c2cc(-c3ccc(NCCNS(C)(=O)=O)c(C)n3)nc3ccc(Cl)cc23)c1C` [Compound 529] was run?
**A.** 6.86

**Q.** What about the pIC50 [2] of the same compound?
**A.** 6.62

**Q.** And the pIC50 [3]?
**A.** 7.68

**Q.** And the pIC50 [4]?
**A.** 7.98

**Q.** With `CCn1ncc(CN(C)C(=O)c2cc(-c3cc4[nH]cnc4c(C)n3)nc3ccc(COC)cc23)c1C` [Compound 530] as the compound, how does the pIC50 [1] read?
**A.** 6.81

**Q.** And the pIC50 [2]?
**A.** 6.61

**Q.** What about the pIC50 [3] of the same compound?
**A.** 7.30

**Q.** What about the pIC50 [4] of the same compound?
**A.** 7.90

**Q.** `CCn1ncc(CN(C)C(=O)c2cc(-c3cc(N[C@@H]4CCNC4)cc(C)n3)nc3ccc(Cl)cc23)c1C` [Compound 531] was tested. Which pIC50 [1] did it give?
**A.** 6.46

**Q.** What about the pIC50 [2] of the same compound?
**A.** 7.05

**Q.** And the pIC50 [3]?
**A.** 7.52

**Q.** What about the pIC50 [4] of the same compound?
**A.** 8.20

**Q.** How did the pIC50 [1] turn out when `CCn1ncc(CN(C)C(=O)c2nc(-c3ccc4n[nH]c(N)c4c3)nc3ccc(Cl)cc23)c1C` [Compound 532] was run?
**A.** 6.80

**Q.** What about the pIC50 [2] of the same compound?
**A.** 6.54

**Q.** What about the pIC50 [3] of the same compound?
**A.** 7.76

**Q.** And the pIC50 [4]?
**A.** 7.81

**Q.** How did the pIC50 [1] turn out when `CCn1ncc(C(C)N(C)C(=O)c2cc(-c3ccc(NCCNC)c(C)n3)nc3ccc(Cl)cc23)c1C` (stereo not drawn) [Compound 533] was run?
**A.** 6.80

**Q.** What about the pIC50 [2] of the same compound?
**A.** 7.10

**Q.** What about the pIC50 [3] of the same compound?
**A.** 6.74

**Q.** What about the pIC50 [4] of the same compound?
**A.** 7.49

**Q.** What does the source list for `CCn1ncc(CN(C)C(=O)c2cc(-c3ccc(NCC(F)(F)CNC)c(C)n3)nc3ccc(Cl)cc23)c1C` [Compound 534]?
**A.** pIC50 [1]: 6.77; pIC50 [2]: 6.64; pIC50 [3]: 7.49; pIC50 [4]: 8.04

**Q.** Which results are given for `CCn1ncc(CN(C)C(=O)c2nc(-c3cc4c(N)n[nH]c4cc3C)nc3ccc(Br)cc23)c1C` [Compound 535]?
**A.** pIC50 [1]: 7.23; pIC50 [2]: 7.24; pIC50 [3]: 7.92; pIC50 [4]: 8.39

**Q.** How did the pIC50 [1] turn out when `CCn1ncc(CN(C)C(=O)c2cc(-c3ccc(NC4CNCC4(F)F)c(C)n3)nc3ccc(Cl)cc23)c1C` (stereo not drawn) [Compound 538] was run?
**A.** 5.97

**Q.** What about the pIC50 [2] of the same compound?
**A.** 5.76

**Q.** And the pIC50 [3]?
**A.** 7.05

**Q.** What about the pIC50 [4] of the same compound?
**A.** 7.05

**Q.** With `CCn1ncc(CN(C)C(=O)c2nc(-c3cc(C)cc(NC4CNC(=O)C4)c3)nc3ccc(Cl)cc23)c1C` (stereo not drawn) [Compound 539] as the compound, how does the pIC50 [1] read?
**A.** 6.15

**Q.** And the pIC50 [2]?
**A.** 5.87

**Q.** What about the pIC50 [3] of the same compound?
**A.** 7.52

**Q.** And the pIC50 [4]?
**A.** 7.58

**Q.** What does the source list for `CNCCNc1ccc(-c2cc(C(=O)N(C)Cc3cnc(C4CC4)n3C)c3cc(Cl)ccc3n2)nc1C` [Compound 540]?
**A.** pIC50 [1]: 7.08; pIC50 [2]: 7.63; pIC50 [3]: 7.69; pIC50 [4]: 8.21

**Q.** How did the pIC50 [1] turn out when `CCc1ncc(CN(C)C(=O)c2cc(-c3cc(-c4ncc[nH]4)n(C)n3)nc3ccc(Cl)cc23)n1C` [Compound 541] was run?
**A.** 6.98

**Q.** What about the pIC50 [2] of the same compound?
**A.** 7.07

**Q.** And the pIC50 [3]?
**A.** 7.95

**Q.** And the pIC50 [4]?
**A.** 8.57

**Q.** What does the source list for `CCn1ncc(CN(C)C(=O)c2cc(-c3cc(-c4ncc[nH]4)n(C)n3)nc3ccc(Cl)cc23)c1C` [Compound 542]?
**A.** pIC50 [1]: 7.27; pIC50 [2]: 7.25; pIC50 [3]: 8.16; pIC50 [4]: 8.62

**Q.** With `CNCCNc1ccc(-c2cc(C(=O)N(C)Cc3cncn3C)c3cc(Cl)ccc3n2)nc1C` [Compound 543] as the compound, how does the pIC50 [1] read?
**A.** 5.17

**Q.** What about the pIC50 [2] of the same compound?
**A.** 5.65

**Q.** And the pIC50 [3]?
**A.** 5.07

**Q.** And the pIC50 [4]?
**A.** 5.05

**Q.** Which results are given for `CNCCNc1ccc(-c2cc(C(=O)N(C)Cc3cnc(C(C)C)n3C)c3cc(Cl)ccc3n2)nc1C` [Compound 544]?
**A.** pIC50 [1]: 6.91; pIC50 [2]: 7.37; pIC50 [3]: 7.84; pIC50 [4]: 8.22

**Q.** With `CCc1ncc(CN(C)C(=O)c2nc(-c3cc(N)c4c[nH]nc4c3)nc3ccc(Cl)cc23)n1C` [Compound 546] as the compound, how does the pIC50 [1] read?
**A.** 6.95

**Q.** And the pIC50 [2]?
**A.** 7.02

**Q.** And the pIC50 [3]?
**A.** 7.86

**Q.** And the pIC50 [4]?
**A.** 7.47

**Q.** Which results are given for `CCn1ncc(CN(C)C(=O)c2cc(-c3cc(NC4CNC4)cc(C)n3)nc3ccc(Cl)cc23)c1C` [Compound 547]?
**A.** pIC50 [1]: 6.26; pIC50 [2]: 6.98; pIC50 [3]: 7.62; pIC50 [4]: 7.90
